Measured values reported in patent US9572799B2, “Pyrazolopyridine derivatives for use in the treatment of bladder cancer” (SANOFI, priority 2013, dated 2017).
Where a name gives a salt, the structure may show the parent alone.

What was measured:
[1] = test system: bladder cancer tumour cells of TCC97-7 type carrying the Ser249Cys mutation of FGF receptor 3; test: Inhibition of serum-induced proliferation of TCC97-7 bladder cancer cells (cell-covered surface area, Incucyte); assay type: cell-based; details: 72 h, TCC97-7 cell line in the presence of serum, after 3 days
Description: Evaluation of the Capacity of the FGF-R Antagonists to Inhibit Serum-Induced Proliferation of Bladder Cancer Tumour Cells of TCC97-7 Type Carrying the Ser249Cys Mutation of FGF Receptor 3
To do this, 2000 cells are seeded in the morning in 50 μl of complete medium (Ham-F/12, 1% FCS, 2 mM glutamine, non-essential amino acids, sodium pyruvate, 1% insulin/transferrin/selenium, hydrocortisone). In the evening, 50 μl of the various compounds are added at 2 or 20 μM after dilution in complete culture medium in order to obtain final concentrations of 1 or 10 μM. After 3 days, cell proliferation is evaluated by measuring the cell-covered surface area of a well of a 96 well plate. This surface area is measured using an Incucyte apparatus (Essen BioScience). The percentage inhibition of the cell proliferation is calculated by considering the surface area occupied by the TCC97-7 cells cultured in the absence of FGF-R antagonists to be 0% inhibition. 100% inhibition would correspond to a well no longer containing cells.
Thus, compounds 1 to 24 are capable of inhibiting TCC97-7 cell proliferation by more than 20% at the dose of 1 or 10 μM. (Table No. 2).

[2] = test system: TCC97-7 bladder cancer cells carrying the Ser249Cys mutation of FGF-R3; test: Reduction of intracellular ATP content of TCC97-7 cells in serum-supplemented medium (Cell Titer-Glo); assay type: cell-based; details: 72 h, TCC97-7 cells cultured in the presence of serum, after 3 days, read-out: Inhibition of the amount of intracellular ATP (%)
Description: Evaluation of the Capacity of FGF-R Antagonists to Reduce the ATP Content of TCC97-7 Bladder Cancer Cells Carrying the Ser249Cys Mutation of FGF-R3, Cultured in a Serum-Supplemented Medium
To do this, 3000 cells are seeded in 50 μl of complete medium (Ham-F/12, 1% FCS, 2 mM glutamine, non-essential amino acids, sodium pyruvate, 1% insulin/transferrin/selenium, hydrocortisone). 16 hours later, 50 μl of the various compounds are added at 2 and 20 μM after dilution in complete culture medium in order to obtain final concentrations of 1 and 10 μM. After 3 days, the ATP content of the cells is measured using the Cell Titer-Glo® Luminescent Cell Viability Assay kit (Promega, France) according to the supplier's recommendations. The percentage inhibition of the amount of intracellular ATP is calculated by considering the ATP content of the cells cultured in the absence of antagonist to be 0% inhibition. 100% inhibition would correspond to a well in which the ATP content is zero.
Thus, compounds 1 to 24 are capable of inhibiting the amount of intracellular ATP in TCC97-7 cells by more than 20% at the dose of 1 or 10 μM (Table No. 3).

| SMILES | melting point | inhibition at 1 µM [1] | inhibition at 10 µM [1] | inhibition at 1 µM [2] | inhibition at 10 µM [2] |
| --- | --- | --- | --- | --- | --- |
| O=C(c1ccc(-c2cc(C(F)F)c3c(-c4ccccc4)n[nH]c3n2)cc1)N1CCCC1 (as salt: hydrochloride) [compound 5, [4-(4-Difluoromethyl-3-phenyl-1H-pyrazolo[3,4-b]pyridin-6-yl)phenyl]pyrrolidin-1-ylmethanone hydrochloride] | 248 °C |  |  |  |  |
| N#Cc1cc(-c2cc(C(F)F)c3c(-c4ccccc4)n[nH]c3n2)ccc1N (as salt: hydrochloride) [compound 22, 2-Amino-5-(4-difluoromethyl-3-phenyl-1H-pyrazolo[3,4-b]pyridin-6-yl)benzonitrile hydrochloride] | 282 °C |  |  |  |  |
| Cn1nc(-c2ccccc2)c2c(C(F)(F)F)cc(-c3cccc(C(N)=O)c3)nc21 [compound 1, 3-(1-methyl-3-phenyl-4-trifluoromethyl-1H-pyrazolo[3,4-b]pyridin-6-yl)benzamide] |  | 8% | 91.6% | 10.9% | 41.1% |
| CNC(=O)c1cc(-c2cc(C(F)(F)F)c3c(-c4ccccc4)nn(C)c3n2)ccc1F [compound 2, 2-Fluoro-N-methyl-5-(1-methyl-3-phenyl-4-trifluoromethyl-1H-pyrazolo[3,4-b]pyridin-6-yl)benzamide] |  | 4% | 53.2% | 17.9% | 35.9% |
| CN(C)c1cccc(-c2cc(C(F)(F)F)c3c(-c4ccccc4)nn(C)c3n2)c1 [compound 3, Dimethyl-[3-(1-methyl-3-phenyl-4-trifluoromethyl-1H-pyrazolo[3,4-b]pyridin-6-yl)phenyl]amine] | 95 °C | -32.3% | 40% | 21.3% | 47.7% |
| CN(C)C(=O)c1cccc(-c2cc(C(F)(F)F)c3c(-c4ccccc4)nn(C)c3n2)c1 [compound 4, N,N-Dimethyl-3-(1-methyl-3-phenyl-4-trifluoromethyl-1H-pyrazolo[3,4-b]pyridin-6-yl)benzamide] |  | 5% | 64.4% | 23.7% | 49.6% |
| O=C(c1ccc(-c2cc(C(F)F)c3c(-c4ccccc4)n[nH]c3n2)cc1)N1CCCC1 [compound 5, [4-(4-Difluoromethyl-3-phenyl-1H-pyrazolo[3,4-b]pyridin-6-yl)phenyl]pyrrolidin-1-ylmethanone hydrochloride] |  | 45.7% | 19.5% | 37.1% | 40.8% |
| O=C(c1cccc(-c2cc(C(F)F)c3c(-c4ccccc4)n[nH]c3n2)c1)N1CCCC1 [compound 6, [3-(4-Difluoromethyl-3-phenyl-1H-pyrazolo[3,4-b]pyridin-6-yl)phenyl]pyrrolidin-1-ylmethanone hydrochloride] |  | 16.2% | 83.9% | 26.9% | 90.5% |
| FC(F)c1cc(-c2cccc(N3CCCCC3)c2)nc2[nH]nc(-c3ccccc3)c12 [compound 7, 4-Difluoromethyl-3-phenyl-6-(3-piperidin-1-ylphenyl)-1H-pyrazolo[3,4-b]pyridine hydrochloride] |  | -50.3% | 52.2% | 20.4% | 78% |
| CN(C)CCn1nc(-c2ccccc2)c2c(C(F)(F)F)cc(-c3ccc(N)c(C#N)c3)nc21 [compound 8, 2-Amino-5-[1-(2-dimethylamino-ethyl)-3-phenyl-4-trifluoromethyl-1H-pyrazolo[3,4-b]pyridin-6-yl]benzonitrile] |  | 10.8% | 95.2% | 27.7% | 97.8% |
| COc1ncc(-c2cc(C(F)(F)F)c3c(-c4ccccc4)nn(C)c3n2)cc1C#N [compound 9, 2-Methoxy-5-(1-methyl-3-phenyl-4-trifluoromethyl-1H-pyrazolo[3,4-b]pyridin-6-yl)nicotinonitrile] | 250 °C | 27.6% | 79.7% | 12.3% | 69.3% |
| N#Cc1cc(-c2cc(C(F)(F)F)c3c(-c4ccccc4)nn(CCN4CCCCC4)c3n2)ccc1N [compound 10, 2-Amino-5-[3-phenyl-1-(2-piperidin-1-ylethyl)-4-trifluoromethyl-1H-pyrazolo[3,4-b]pyridin-6-yl]benzonitrile] |  | 22.8% | 85.9% | 11% | 94.4% |
| N#Cc1cc(-c2cc(C(F)F)c3c(-c4cccnc4)n[nH]c3n2)ccc1N [compound 11, 2-Amino-5-(4-difluoromethyl-3-pyridin-3-yl-1H-pyrazolo[3,4-b]pyridin-6-yl)benzonitrile] | 296 °C | 50.4% | 19.2% | 21.5% | 25.5% |
| CS(=O)(=O)Nc1cccc(-c2cc(C(F)(F)F)c3c(-c4ccccc4)n[nH]c3n2)c1 [compound 13, N-[3-(3-Phenyl-4-trifluoromethyl-1H-pyrazolo[3,4-b]pyridin-6-yl)phenyl]methanesulphonamide hydrochloride] |  | 0% | 57% | 56% | 63% |
| CN(C)CCn1nc(-c2ccccc2)c2c(C(F)F)cc(-c3ccc(N)c(C#N)c3)nc21 [compound 14, 2-Amino-5-[4-difluoromethyl-1-(2-dimethylaminoethyl)-3-phenyl-1H-pyrazolo[3,4-b]pyridin-6-yl]benzonitrile] |  |  |  | 32% | 77% |
| Nc1ccc(-c2cc(C(F)(F)F)c3c(-c4ccccc4)n[nH]c3n2)cc1 [compound 16, 4-(3-Phenyl-4-trifluoromethyl-1H-pyrazolo[3,4-b]pyridin-6-yl)phenylamine] | 237 °C |  |  | 24% | 38% |
| CNC(=O)c1cccc(-c2cc(C(F)(F)F)c3c(-c4ccccc4)n[nH]c3n2)c1 [compound 17, N-Methyl-3-(3-phenyl-4-trifluoromethyl-1H-pyrazolo[3,4-b]pyridin-6-yl)benzamide hydrochloride] |  |  |  | 13% | 69% |
| CN(C)c1ccc(-c2cc(C(F)(F)F)c3c(-c4ccccc4)n[nH]c3n2)cc1 [compound 19, Dimethyl-[4-(3-phenyl-4-trifluoromethyl-1H-pyrazolo[3,4-b]pyridin-6-yl)phenyl]amine] |  |  |  | 30% | 63% |
| N#Cc1cc(-c2cc(C(F)(F)F)c3c(-c4ccccc4)n[nH]c3n2)ccc1F [compound 20, 2-Fluoro-5-(3-phenyl-4-trifluoromethyl-1H-pyrazolo[3,4-b]pyridin-6-yl)benzonitrile] |  |  |  | 11% | 26% |
| Cn1nc(-c2ccccc2)c2c(C(F)(F)F)cc(-c3cccc(NS(C)(=O)=O)c3)nc21 [compound 21, N-[3-(1-Methyl-3-phenyl-4-trifluoromethyl-1H-pyrazolo[3,4-b]pyridin-6-yl)phenyl]methanesulphonamide] |  | -3% | 61% | -1% | 25% |
| N#Cc1cc(-c2cc(C(F)F)c3c(-c4ccccc4)n[nH]c3n2)ccc1N [compound 22, 2-Amino-5-(4-difluoromethyl-3-phenyl-1H-pyrazolo[3,4-b]pyridin-6-yl)benzonitrile hydrochloride] |  |  |  | 27% | 53% |
| Cn1nc(-c2ccccc2)c2c(C(F)(F)F)cc(-c3ccc(C(=O)O)cc3)nc21 [compound 23, 4-(1-Methyl-3-phenyl-4-trifluoromethyl-1H-pyrazolo[3,4-b]pyridin-6-yl)benzoic acid] |  | 8% | 33% | 17% | 40% |
| FC(F)(F)c1cc(-c2ccc(N3CCOCC3)cc2)nc2[nH]nc(-c3ccccc3)c12 [compound 24, 6-(4-Morpholin-4-ylphenyl)-3-phenyl-4-trifluoromethyl-1H-pyrazolo[3,4-b]pyridine hydrochloride] |  |  |  | 6% | 27% |
